# Structures can show the parent of a compound that is named as a salt.
row,melting point [°C],Compound
1,143 to 145,CNCc1cc(OC)c(OC)cc1Oc1ccc(Cl)c(Cl)c1 (as salt: HCl)
2,164 to 166,CNCc1ccc(C(F)(F)F)cc1Oc1ccc(Cl)c(Cl)c1
3,174 to 175,"CN(C)Cc1cc(F)ccc1Oc1ccc(Cl)c(Cl)c1 (as salt: HCl) [Example 13, [2-(3,4-Dichlorophenoxy)-5-fluorobenzyl]-dimethylamine]"
4,127,CNC(C)c1cc(F)ccc1Oc1ccc(Cl)c(Cl)c1 (stereo not shown)
5,127 to 128,CN(C)Cc1cc(C(F)(F)F)ccc1Oc1ccc(Cl)c(Cl)c1.O=C(O)/C=C\C(=O)O
6,130 to 133,CC(c1ccccc1Oc1ccc(Cl)c(Cl)c1)N(C)C (stereo not shown) (as salt: HCl)
7,206 to 210,CNCc1cc(Br)ccc1Oc1ccc(Cl)c(Cl)c1 (as salt: HCl)
8,185 to 189,CNCc1ccc(Br)cc1Oc1ccc(Cl)c(Cl)c1 (as salt: HCl)
9,171 to 173,Cl.Fc1ccc(Oc2ccc(Cl)c(Cl)c2)c(C2CCCN2)c1 (stereo not shown)
10,147 to 149,CNC(C)c1ccccc1Oc1ccc(Cl)cc1 (stereo not shown) (as salt: HCl)
11,132 to 133,CNCc1ccc(Cl)cc1Oc1ccc(Cl)c(Cl)c1
12,140 to 141,CNCc1cc(OC)ccc1Oc1ccc(Cl)c(Cl)c1 (as salt: HCl) (hydrate or solvate)
13,208 to 209,CNCc1cc(F)ccc1Oc1ccc(Cl)cc1 (as salt: HCl)
14,196 to 198,Cc1ccc(Oc2ccc(Cl)c(Cl)c2)c(CN(C)C)c1 (as salt: HCl)
15,199 to 202,CC(=O)Nc1ccc(Oc2ccc(Cl)c(Cl)c2)c(CN(C)C)c1.Cl
16,190 to 194,"NCc1cc(F)ccc1Oc1ccc(Cl)c(Cl)c1 (as salt: hydrochloride) [Example 57, 2-(3,4-DICHLOROPHENOXY)-5-FLUORO-BENZYLAMINE]"

# From US7084165B2, “Monoamine reuptake inhibitors for treatment of CNS disorders” (Pfizer Inc, priority 1999, dated 2006)
